# According to patent US20220257516A1, “THERAPEUTIC CONSTRUCTS FOR CO-DELIVERY OF MITOTIC KINASE INHIBITOR AND IMMUNE CHECKPOINT INHIBITOR” (Oregon Health & Science University, priority 2019, published 2022):
# Legend:
# [1] = system: LLC-JSP cells; experiment: Cell viability after treatments (Cell Titer Glo), LLC-JSP; type: cell-based, mouse; details: for 3-day viability of LLC-JSP cells: free mitotic kinase inhibitors
# Experimental: (C) Cell viability of murine cancer cells (LLC-JSP, 4T1, B16-F10) and murine bone marrow-derived dendritic cells (BMDC) treated with p-iPLK1-NP.
# (B) Treatment effect of ADC versus free alisertib of equivalent dose on viability of LLC-JSP cells (2-days). Free alisertib was dissolved in DMSO before use.
# Cell viability after treatments: Cells (1500/well) were plated in white flat bottom 96 well plate overnight. The following day, cells were treated with indicated treatments and media was changed 24 hr post treatment. 3-5 day post treatment, cell viability was assessed using Cell Titer Glo assay (Promega) following manufacturer's instructions. Luminescence was read with Tecan plate reader.
# [2] = system: PD-L1 surface expression of LLC-JSP cells; experiment: PD-L1 surface expression by flow cytometry, LLC-JSP; type: cell-based, mouse; details: for surface PD-L1 level of surviving cells: 500 ng/ml
# Experimental: FIGS. 4A-4C Treatment effects of mitotic kinase inhibitors on (A) 3-day viability of LLC-JSP cells, (B) PD-L1 expression levels of surviving cells post treatment with 500 ng/ml of volasertib, alisertib, or AZD7762 as determined by flow cytometry and (C) their quantification.
# FIGS. 6A-6D Nanoparticle delivery of PLK1 inhibitor volasertib (iPLK1-NP) to mouse NSCLC cells. (FIG. 6A) Schematic of synthesis of iPLK1-NP. (FIG. 6B) Hydrodynamic size of NP (with no inhibitor) and iPLK1-NP measured with Zetasizer. (FIG. 6C) Viability of LLC-JSP cells treated with volasertib (in 1% DMSO/PBS), iPLK1-NP (in PBS), or 1% DMSO/PBS for 4 days. Data presented as mean±SD from 4 independent samples; ****P<0.0001. (FIG. 6D) PD-L1 surface expression of LLC-JSP cells treated with PBS or iPLK1-NP (42 μg/ml NP, 210 ng/ml volasertib) for 3 days.
# FIGS. 7A-7E. Nanoparticle for co-delivery of PLK1 inhibitor (iPLK1) and PD-L1 antibody (p-iPLK1-NP). (FIG. 7A) Schematic and (FIG. 7B) hydrodynamic size of p-iPLK1-NP containing 4 wt. % of PD-L1 antibody and 0.5 wt. % of PLK1 inhibitor. (FIG. 7C) 5-day cell viability of LLC-JSP cells treated with iPLK1-NP or p-iPLK1-NP. Data presented as mean±SD from 4 independent samples; ns—not significant. PD-L1 surface expression assessed by flow cytometry after LLC-JSP cells were incubated with various treatments as specified for (FIG. 7D) 2 hrs and (FIG. 7E) 2 days. Doses: free PD-L1 antibody (50 μg/ml), iPLK1-NP (NP containing 50 μg/ml volasertib), and p-iPLK1-NP (NP containing 50 μg/ml volasertib and 2 μg/ml PD-L1 antibody). Left of FIGS. 7D and 7E: representative histograms, right: median intensity (RFU). Data presented as mean±SD from independent duplicates (10,000 events per sample); *P<0.05, **P<0.01, ***P<0.001, ****P<0.0001. Unless specified otherwise, the percent loading is by weight of nanoparticle throughout the application.
# (§1) FIGS. 12A and 12B. Inhibition of PLK1 reduces phosphorylation of STAT3. Western blot showing protein expression of PLK1, Pl3Ka, phosphorylated STAT3 (Tyr705), phosphorylated AKT (Ser473), and p-Actin 3 days post treatment (50 nM siRNA) in A549 and H460 NSCLC cell lines. […] The cells were treated with NP containing 30 nM siRNA against PD-L1 (siPDL1) or 30 nM scrambled siRNA (siSCR) at 2 wt. % siRNA. At 72 hr post treatment, cells were harvested and assessed for PD-L1 protein expression by flow cytometry. RFU=Relative fluorescence units.
# Flow cytometry: Cells (100K cells/well) were plated in 6 well plates overnight and treated with indicated treatments the next day. Following treatments, cells were collected and aliquoted to […] per sample before washing in FACs buffer and staining. […] Cells were then washed with FACs buffer and analyzed with Guava (50,000 events per sample).
# [3] = system: A549; experiment: Cell cycle arrest in G2/M phase; type: cell-based, human; details: 72 hr post treatment, 50 nM siRNA, BI 2536 at 10 nM
# Experimental: (§2) FIGS. 2A-2D. Effects of siRNA against mitotic regulator PLK1 (siPLK1) on non-small-cell lung carcinoma (NSCLC) cell lines (A549 and H460). (FIG. 2A) 48-hr PLK1 mRNA knockdown (HPRT used as house-keeping gene) and (FIG. 2B) 72-hr PLK1 protein reduction at 50 nM siRNA dose. (FIG. 2C) 4-day cell viability at 30 nM siRNA dose. (FIG. 2D) Cell cycle arrest increase in G2/M phase in A549 72 hr post treatment. Antibody (cetuximab) conjugated NP was used to deliver the siPLK1 (C-siPLK1-NP) or scrambled siRNA control (C-siSCR-NP) at 50 nM siRNA BI 2536 (a PLK1 inhibitor) was used as a drug benchmark at 10 nM. Data presented as mean±SD from independent duplicates (10,000 events per sample); ****P<0.0001 vs. untreat control. Unless specified otherwise, “NP” denotes mesoporous silica nanoparticles coated with cross-linked PEI and PEG, as described in Ngamcherdtrakul et al., Advanced Functional Materials, 25(18):2646-2659, 2015 and U.S. Patent Application Publication No. 2017/0173169.
# [4] = system: PD-L1 surface expression of A549; experiment: PD-L1 surface expression by flow cytometry, A549; type: cell-based, human; details: 3 days (72 hr) post siRNA treatment
# Description: (§3) FIGS. 3A-3C. […] (FIG. 3A) PLK1 and PD-L1 mRNA expression in A549 (human NSCLC) at 48 hr post treatment with PLK1 siRNA (siPLK1) or scrambled siRNA (siSCR) normalized to HPRT housekeeping gene. Data presented as mean±SD from triplicates; ****P<0.0001. (FIG. 3B) PD-L1 surface expression of A549 ([…]) and LLC-JSP (a mouse NSCLC, FIG. 3C) at 72 hr post treatments assessed by flow cytometry (10,000 events per sample). Mouse siPLK1 seq. […] (SEQ ID NO: 1); Human siPLK1 seq. […] (SEQ ID NO: 2).
# Flow cytometry: Cells (100K cells/well) were plated in 6 well plates overnight and treated with indicated treatments the next day. Following treatments, cells were collected and aliquoted to […] per sample before washing in FACs buffer and staining. Primary and secondary antibodies were stained for 30 mins and 1 hour, respectively, under rocking on ice. After staining, cells were washed in FACs buffer before flow analysis with Guava easyCyte (Millipore Sigma) flow cytometer (10,000 events per sample). For tumors, tumors were harvested, minced, and incubated with 1 mg/ml DNAse for 30 minutes before smashing through 70 μm filter to obtain single cell suspension. RBC lysis buffer was incubated with cells for 5 minutes, and washed with PBS. […] Cells were then washed with FACs buffer and analyzed with Guava (50,000 events per sample).
# [5] = system: PD-L1 mRNA expression in A549; experiment: PD-L1 mRNA expression after PLK1 knock-down (RT-qPCR); type: cell-based, human; details: 48 hr, compared with control treated cells
# Description: as §3
# RT-qPCR to assess PLK1 gene knock down: RNA was isolated with GeneJet RNA purification kit (Thermo Fisher Scientific) following manufacturer's instructions. One-Step qRT-PCR was performed using EXPRESS One-Step Superscript™ qRT-PCR Kit (Invitrogen). Cycling conditions: 50° C. for 2 min, 95° C. for 10 min, 40 cycles of 95° C. for 15 s, and 60° C. for 1 min. TAQMAN gene expression primers Human HPRT mRNA (Hs99999909_m1), Human PLK1 mRNA (Hs00983225_g1), and Human PD-L1 (Hs00204257_ml) were used. Data was analyzed using 2^−ΔΔC(t) method.
# [6] = system: phosphorylated STAT3 (Tyr705); experiment: Western blot of phosphorylated STAT3 after PLK1 inhibition; type: cell-based, human; details: A549 and H460; 3 days post treatment; 50 nM siRNA
# Experimental: as §1
# Western Blot. Cells were seeded in 6 well plates overnight and treated with indicated treatments. Cell culture medium was changed one day aftertreatment. Three days post treatment, cells were lysed in RIPA buffer (50-100 μl per well). Lysate was sonicated and centrifuged (15,000 RPM for 15 minutes) and supernatant was collected. Amount of total protein was quantified using BCA. 30 μg of proteins (per sample) were mixed with 4× Novex NuPAGE LDS sample buffer and beta-mercaptoethanol (10% final concentration). Samples were denatured for 5 min at 95° C. and loaded onto gel (NuPAGE) for electrophoresis. Proteins were then transferred onto PVDF-FL membrane and blocked with LICOR blocking buffer. Membranes were incubated with primary antibodies overnight (PLK1, phospho-STAT3 (Tyr705), β-ACTIN) at 4° C. […]
# [7] = system: PLK1 mRNA; experiment: PLK1 knock down by siRNA (RT-qPCR / protein); type: cell-based, human; details: A549; 48 hr post treatment; normalized to HPRT
# Experimental: as §2
# FIGS. 3A-3C. […] (FIG. 3B) PD-L1 surface expression of A549 (FIG. 2B) and LLC-JSP (a mouse NSCLC, FIG. 3C) at 72 hr post treatments assessed by flow cytometry (10,000 events per sample). […]
# RT-qPCR to assess PLK1 gene knock down: RNA was isolated with GeneJet RNA purification kit (Thermo Fisher Scientific) following manufacturer's instructions. […] Data was analyzed using 2^−ΔΔC(t) method.
compound,measurement,setting,value
CC[C@@H]1C(=O)N(C)c2cnc(Nc3ccc(C(=O)N[C@H]4CC[C@H](N5CCN(CC6CC6)CC5)CC4)cc3OC)nc2N1C(C)C [volasertib],cell viability compared with vehicle treated cells,"[1]; LLC-JSP, 4 days, dose-dependent",significantly reduced cell viability
same,3-day viability of LLC-JSP cells,[1],significant cell death
same,surface PD-L1 level of surviving cells,[2],upregulated surface PD-L1 level
COc1cc(Nc2ncc3c(n2)-c2ccc(Cl)cc2C(c2c(F)cccc2OC)=NC3)ccc1C(=O)O [alisertib],3-day viability of LLC-JSP cells,[1],significant cell death
same,surface PD-L1 level of surviving cells,[2],upregulated surface PD-L1 level
CC[C@@H]1C(=O)N(C)c2cnc(Nc3ccc(C(=O)NC4CCN(C)CC4)cc3OC)nc2N1C1CCCC1 [BI2536],cell cycle arrest in G2/M phase,[3],G2/M growth arrest
"Mouse siPLK1: Mouse siPLK1 seq. GUGGGCGUGGUACCAUCUGUU (SEQ ID NO: 1) (listed as RNA, chemistry not given here)",PD-L1 surface expression,[2]; 72 hr post siRNA treatment,induces PD-L1 expression
"siPLK1: siRNA against PLK1, antisense 5′-UAUUCAUUCUUCUUGAUCCGG-3′; SEQ ID NO: 2 (sense strand lacks entry, further chemistry not given here)",PD-L1 surface expression,[4],increase in PD-L1 surface expression
same,increase in PD-L1 mRNA expression,[5],2.5 fold
same,phosphorylation of STAT3,[6],reduced phosphorylation of STAT3
same,knockdown of PLK1 mRNA,[7],85%
NC(=O)Nc1cc(-c2cccc(F)c2)sc1C(=O)N[C@H]1CCCNC1 [AZD7762],3-day viability of LLC-JSP cells,[1],significant cell death
same,surface PD-L1 level of surviving cells,[2],upregulated surface PD-L1 level
